Legend:
HDAC 1 = HDAC 1 (Homo sapiens, UniProt Q13547); experiment: HDAC 1 inhibition assay with about 3 hours preincubation of enzyme and compound; format: biochemical; details: read-out: HDAC 1 inhibitory activity (IC50 [μM]) (3-hour preincubation)
Procedure: The second assay is similar to the first assay described above, except that preincubation is carried out for about 3 hours after the enzyme is introduced. The test compound was suspended in, and titrated in DMSO. It was then spotted into a 384-well test plate. The enzyme, HDAC 1, was diluted in the same assay buffer as used in the previous assay and added to the pre-spotted compound. The enzyme/compound mix was incubated at room temperature for about 3 hours. The peptide substrate containing a fluorophore/quencher pair was diluted in the assay buffer and added to the compound/enzyme mix initiating the reaction. The reaction incubated at room temperature for 45 minutes. A concentrated developer solution was diluted in the assay buffer, and added to the reaction. The reaction was incubated at room temperature for about 15 minutes and relative fluorescence was read on an instrument reader.

CDK2 = CDK2 (Homo sapiens, UniProt P24941); experiment: CDK2 inhibition (IC50); format: biochemical

Chain of HDAC 1 (Q13547 whole entry, species assumed): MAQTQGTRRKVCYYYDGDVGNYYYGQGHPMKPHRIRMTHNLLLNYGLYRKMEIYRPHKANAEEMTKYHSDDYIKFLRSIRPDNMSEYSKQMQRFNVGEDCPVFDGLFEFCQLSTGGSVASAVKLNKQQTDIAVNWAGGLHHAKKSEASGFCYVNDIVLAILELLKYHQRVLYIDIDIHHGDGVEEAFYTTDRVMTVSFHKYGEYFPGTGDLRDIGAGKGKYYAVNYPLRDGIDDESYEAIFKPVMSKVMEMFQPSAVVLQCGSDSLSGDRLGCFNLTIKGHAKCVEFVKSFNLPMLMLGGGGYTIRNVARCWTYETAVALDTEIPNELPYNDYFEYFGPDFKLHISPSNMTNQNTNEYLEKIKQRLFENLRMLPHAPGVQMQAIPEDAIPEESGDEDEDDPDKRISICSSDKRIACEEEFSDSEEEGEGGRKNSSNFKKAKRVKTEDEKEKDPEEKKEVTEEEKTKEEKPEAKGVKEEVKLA

Compound `Cc1ncc(-c2ccnc(Nc3ccc(C(=O)Nc4ccccc4N)cc3)n2)n1C(C)C` [Example 1, N-(2-amino-phenyl)-4-[4-(1-isopropyl-2-methylimidazol-5-yl)-pyrimidin-2-ylamino]-benzamide] has an IC50 (HDAC 1) of 0.273 µM and an IC50 (CDK2) of 0.03 µM.

With `Cc1ncc(-c2ccnc(Nc3ccc(C(=O)NO)cc3)n2)n1C(C)C` [Example 2, N-hydroxy-4-[4-(1-isopropyl-2-methylimidazol-5-yl)-pyrimidin-2-ylamino]-benzamide] the IC50 (HDAC 1) was 0.241 µM and the IC50 (CDK2) was 0.01 µM.

`Cc1ncc(-c2ccnc(Nc3ccc(C(=O)Nc4cc(-c5cccs5)ccc4N)cc3)n2)n1C(C)C` [Example 3, N-(2-amino-5-thiophen-2-yl-phenyl)-4-[4-(1-isopropyl-2-methylimidazol-5-yl)-pyrimidin-2-ylamino]-benzamide] showed an IC50 (HDAC 1) of 0.019 µM and an IC50 (CDK2) of 0.04 µM.

In the case of `Cc1ncc(-c2ccnc(Nc3ccc(C(=O)Nc4cc(F)ccc4N)cc3)n2)n1C(C)C` [Example 4, N-(2-amino-5-fluoro-phenyl)-4-[4-(1-isopropyl-2-methylimidazol-5-yl)-pyrimidin-2-ylamino]-benzamide], the IC50 (HDAC 1) is reported as 0.809 µM and the IC50 (CDK2) is reported as 0.02 µM.

In the case of `Cc1ncc(-c2cnnc(Nc3ccc(C(=O)Nc4ccccc4N)cc3)n2)n1C(C)C` [Example 5, N-(2-aminophenyl)-4-(5-(1-isopropyl-2-methylimidazol-5-yl)-1,2,4-triazin-3-ylamino)benzamide], the IC50 (HDAC 1) is reported as 0.423 µM and the IC50 (CDK2) is reported as greater than 40 µM.

For `Cc1ncc(-c2ccnc(Nc3ccc(C(=O)Nc4cc(C(F)(F)F)ccc4N)cc3)n2)n1C(C)C` [Example 6, N-(2-amino-5-(trifluoromethyl)phenyl)-4-(4-(1-isopropyl-2-methylimidazol-5-yl)pyrimidin-2-ylamino)benzamide], the IC50 (HDAC 1) was greater than 10 µM and the IC50 (CDK2) was 0.01 µM.

Work on `Cc1ncc(-c2cnnc(Nc3ccc(C(=O)Nc4cc(-c5cccs5)ccc4N)cc3)n2)n1C(C)C` [Example 7, N-(2-amino-5-(thiophen-2-yl)phenyl)-4-(5-(1-isopropyl-2-methylimidazol-5-yl)-1,2,4-triazin-3-ylamino)benzamide] yielded an IC50 (HDAC 1) of 0.03 µM and an IC50 (CDK2) greater than 40 µM.

Compound `Cc1ncc(-c2ccnc(Nc3ccc(C(=O)NO)s3)n2)n1C(C)C` [Example 8, N-hydroxy-5-(4-(1-isopropyl-2-methylimidazol-5-yl)pyrimidin-2-ylamino)thiophene-2-carboxamide] has an IC50 (HDAC 1) of 0.656 µM and an IC50 (CDK2) of 0.002 µM.

`Cc1ncc(-c2ccnc(Nc3ccc(C(=O)Nc4cc(-c5ccc(F)cc5)ccc4N)cc3)n2)n1C(C)C` [Example 9, N-(4-amino-4′-fluorobiphenyl-3-yl)-4-(4-(1-isopropyl-2-methylimidazol-5-yl)pyrimidin-2-ylamino)benzamide] showed an IC50 (HDAC 1) of 0.04 µM and an IC50 (CDK2) of 0.027 µM.

`Cc1ncc(-c2ccnc(Nc3ccc(C(=O)Nc4cc(-c5cccs5)ccc4N)s3)n2)n1C(C)C` [Example 10, N-(2-amino-5-(thiophen-2-yl)phenyl)-5-(4-(1-isopropyl-2-methylimidazol-5-yl)pyrimidin-2-ylamino)thiophene-2-carboxamide] gave an IC50 (HDAC 1) of 0.034 µM and an IC50 (CDK2) of 0.026 µM.

Compound `Cc1ncc(-c2ccnc(Nc3ccc(C(=O)Nc4ccccc4N)s3)n2)n1C(C)C` [Example 11, N-(2-aminophenyl)-5-(4-(1-isopropyl-2-methylimidazol-5-yl)pyrimidin-2-ylamino)thiophene-2-carboxamide] has an IC50 (HDAC 1) of 4.37 µM and an IC50 (CDK2) of 0.012 µM.

Compound `Cc1ncc(-c2ncnc(Nc3ccc(C(=O)Nc4ccccc4N)cc3)n2)n1C(C)C` [Example 12, N-(2-aminophenyl)-4-(4-(1-isopropyl-2-methylimidazol-5-yl)-1,3,5-triazin-2ylamino)benzamide] has an IC50 (HDAC 1) of 0.153 µM and an IC50 (CDK2) of 0.34 µM.

In the case of `Cc1ncc(-c2ccnc(Nc3ccc(C(=O)Nc4cc(-c5ccc(F)cc5)ccc4N)s3)n2)n1C(C)C` [Example 13, N-(4-amino-4′-fluorobiphenyl-3-yl)-5-(4-(1-isopropyl-2-methylimidazol-5-yl)pyrimidin-2-ylamino)thiophene-2-carboxamide], the IC50 (HDAC 1) is reported as 0.054 µM and the IC50 (CDK2) is reported as 0.065 µM.

In the case of `Cc1cc(C(=O)Nc2cc(-c3ccc(F)cc3)ccc2N)sc1Nc1nccc(-c2cnc(C)n2C(C)C)n1` [Example 14, N-(4-amino-4′-fluorobiphenyl-3-yl)-5-(4-(1-isopropyl-2-methylimidazol-5-yl)pyrimidin-2-ylamino)-4-methylthiophene-2-carboxamide], the IC50 (HDAC 1) is reported as 0.028 µM and the IC50 (CDK2) is reported as 0.99 µM.

`Cc1ncc(-c2ccnc(Nc3ncc(C(=O)Nc4cc(-c5ccc(F)cc5)ccc4N)s3)n2)n1C(C)C` [Example 15, N-(4-amino-4′-fluorobiphenyl-3-yl)-2-(4-(1-isopropyl-2-methylimidazol-5-yl)pyrimidin-2-ylamino)thiazole-5-carboxamide] showed an IC50 (HDAC 1) of 0.049 µM and an IC50 (CDK2) of 1.04 µM.

`Cc1ncc(-c2ccnc(Nc3ncc(C(=O)Nc4cc(-c5cccs5)ccc4N)s3)n2)n1C(C)C` [Example 16, N-(2-amino-5-(thiophen-2-yl)phenyl)-2-(4-(1-isopropyl-2-methylimidazol-5-yl)pyrimidin-2-ylamino)thiazole-5-carboxamide] gave an IC50 (HDAC 1) of 0.032 µM and an IC50 (CDK2) of 2.15 µM.

`Cc1ncc(-c2nc(Nc3ccc(C(=O)Nc4cc(-c5cccs5)ccc4N)s3)ncc2F)n1C(C)C` [Example 17, N-(2-amino-5-(thiophen-2-yl)phenyl)-5-(5-fluoro-4-(1-isopropyl-2-methylimidazol-5-yl)pyrimidin-2-ylamino)thiophene-2-carboxamide] gave an IC50 (HDAC 1) of 0.037 µM and an IC50 (CDK2) of 0.025 µM.

Work on `Cc1ncc(-c2ccnc(Nc3ncc(C(=O)Nc4ccccc4N)s3)n2)n1C(C)C` [Example 18, N-(2-aminophenyl)-2-(4-(1-isopropyl-2-methylimidazol-5-yl)pyrimidin-2-ylamino)thiazole-5-carboxamide] yielded an IC50 (HDAC 1) of 0.41 µM and an IC50 (CDK2) of 2.1 µM.

Reference: patent US8134000B2, “Imidazolyl pyrimidine inhibitor compounds” (Gilead Sciences, Inc., priority 2008, dated 2012)
